Laboratory results reported in ChEMBL document CHEMBL5370622 (J Nat Prod, 2023).

Columns and labels:
[1] = Inhibition of human full length […] gene fusion of J-PKAc alpha chimeric protein expressed in Escherichia coli BL21 (DE3) cells using CREB KRREILSRRPSYR-biotinylated peptide as substrate incubated for 45 mins in presence of ATP by ELISA
[2] = target: T1, Dual specificity tyrosine-phosphorylation-regulated kinase 2 (Homo sapiens) (UniProt Q92630); assay: Inhibition of human DYRK2 at 50 nM in presence of ATP by radiometric hotspot kinase assay relative to control
T1 sequence (whole entry): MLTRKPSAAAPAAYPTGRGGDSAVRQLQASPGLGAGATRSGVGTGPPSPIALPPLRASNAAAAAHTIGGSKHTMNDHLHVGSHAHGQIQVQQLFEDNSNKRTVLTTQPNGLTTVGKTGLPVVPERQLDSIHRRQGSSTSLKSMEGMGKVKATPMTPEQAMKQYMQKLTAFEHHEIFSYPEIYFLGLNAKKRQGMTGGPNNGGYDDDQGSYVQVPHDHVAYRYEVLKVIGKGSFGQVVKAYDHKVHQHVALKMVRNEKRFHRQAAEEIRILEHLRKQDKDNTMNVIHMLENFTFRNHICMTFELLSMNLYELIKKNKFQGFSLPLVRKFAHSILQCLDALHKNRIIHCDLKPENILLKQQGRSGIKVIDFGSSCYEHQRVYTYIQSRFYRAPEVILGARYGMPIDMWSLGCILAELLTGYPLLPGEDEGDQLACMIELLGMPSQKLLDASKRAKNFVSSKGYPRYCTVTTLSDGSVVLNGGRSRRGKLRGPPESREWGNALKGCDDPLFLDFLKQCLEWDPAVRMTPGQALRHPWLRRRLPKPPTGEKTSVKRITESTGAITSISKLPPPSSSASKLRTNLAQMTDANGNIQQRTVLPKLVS

[3] = target: T2, Dual specificity tyrosine-phosphorylation-regulated kinase 3 (Homo sapiens) (UniProt O43781); assay: Inhibition of human DYRK3 at 50 nM in presence of ATP by radiometric hotspot kinase assay relative to control
T2 sequence (whole entry): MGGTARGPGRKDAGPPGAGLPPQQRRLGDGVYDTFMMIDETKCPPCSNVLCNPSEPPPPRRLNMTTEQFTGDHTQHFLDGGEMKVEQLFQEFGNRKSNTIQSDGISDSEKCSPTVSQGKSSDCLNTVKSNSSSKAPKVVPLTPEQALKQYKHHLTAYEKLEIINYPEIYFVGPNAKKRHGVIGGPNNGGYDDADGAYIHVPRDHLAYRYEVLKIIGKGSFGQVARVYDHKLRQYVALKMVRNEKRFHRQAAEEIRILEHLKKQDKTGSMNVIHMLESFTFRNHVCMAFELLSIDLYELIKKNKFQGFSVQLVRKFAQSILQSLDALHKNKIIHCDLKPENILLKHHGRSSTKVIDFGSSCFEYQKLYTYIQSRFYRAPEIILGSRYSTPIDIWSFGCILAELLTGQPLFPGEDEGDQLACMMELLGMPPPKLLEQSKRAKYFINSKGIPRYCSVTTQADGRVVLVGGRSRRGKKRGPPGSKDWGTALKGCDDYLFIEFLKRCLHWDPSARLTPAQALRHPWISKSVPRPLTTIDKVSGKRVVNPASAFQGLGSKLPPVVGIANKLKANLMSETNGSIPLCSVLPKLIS

[4] = target: Dual specificity tyrosine-phosphorylation-regulated kinase 1A (Homo sapiens) (UniProt Q13627); assay: Inhibition of human DYRK1A at 50 nM in presence of ATP by radiometric hotspot kinase assay relative to control
[5] = target: Dual specificity tyrosine-phosphorylation-regulated kinase 1B (Homo sapiens) (UniProt Q9Y463); assay: Inhibition of human DYRK1B at 50 nM in presence of ATP by radiometric hotspot kinase assay relative to control
[6] = target: cAMP-dependent protein kinase catalytic subunit alpha (Homo sapiens, UniProt P17612); assay: Inhibition of wild type PKAc alpha (unknown origin) using CREB KRREILSRRPSYR-biotinylated peptide as substrate incubated for 45 mins in presence of ATP by ELISA
[7] = Binding affinity to human full length […] gene fusion of J-PKAc alpha chimeric protein expressed in Escherichia coli BL21 (DE3) cells assessed as dissociation constant by MST assay

Sequence of Dual specificity tyrosine-phosphorylation-regulated kinase 1B (Homo sapiens) (Q9Y463 whole entry, looked up): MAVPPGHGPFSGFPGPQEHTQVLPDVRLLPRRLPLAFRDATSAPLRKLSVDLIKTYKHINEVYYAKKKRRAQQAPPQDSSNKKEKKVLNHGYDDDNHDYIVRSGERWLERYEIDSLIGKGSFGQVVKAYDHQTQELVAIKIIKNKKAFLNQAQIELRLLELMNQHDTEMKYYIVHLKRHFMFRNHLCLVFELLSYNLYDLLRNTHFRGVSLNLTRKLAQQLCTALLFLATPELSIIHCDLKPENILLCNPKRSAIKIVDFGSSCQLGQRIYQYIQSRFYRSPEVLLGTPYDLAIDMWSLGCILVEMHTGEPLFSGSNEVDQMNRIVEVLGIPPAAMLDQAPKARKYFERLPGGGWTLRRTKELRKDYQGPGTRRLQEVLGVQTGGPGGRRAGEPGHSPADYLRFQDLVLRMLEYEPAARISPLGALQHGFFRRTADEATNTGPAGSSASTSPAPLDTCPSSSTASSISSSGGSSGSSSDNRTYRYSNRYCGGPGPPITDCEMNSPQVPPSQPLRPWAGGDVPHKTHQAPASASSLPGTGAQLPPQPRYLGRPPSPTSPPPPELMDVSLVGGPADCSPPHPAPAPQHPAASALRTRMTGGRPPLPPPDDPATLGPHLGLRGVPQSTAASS

Row | Compound | IC50 [1] [µM] | inhibition [2] [%] | inhibition [3] [%] | inhibition [4] [%] | inhibition [5] [%] | IC50 [6] [µM] | Kd [7] [µM]
1 | Cn1c(Br)nc(Br)c1C1=CN(c2ncnc3[nH]cnc23)CCS1 | > 200 | – | – | – | – | – | –
2 | Cn1cncc1C1=CN(c2ncnc3[nH]cnc23)CCS1 | – | 21 | 16 | 23 | 23 | – | –
3 | Cn1cncc1C1=CN(c2ncnc3[nH]c(=O)[nH]c23)CCS1 | 79 | – | – | – | – | 90 | 37
4 | Cn1cncc1C1=CN(c2ncnc3[nH]cnc23)CCS1(=O)=O | > 200 | – | – | – | – | – | –
5 | Cn1cncc1C1=CN(c2ncnc3[nH]cnc23)CC[S+]1[O-] (configuration not stated) | > 200 | – | – | – | – | – | –
6 | Cn1cnc(Br)c1C1=CN(c2ncnc3[nH]cnc23)CCS1 | 1.04 | 56 | 49 | 61 | 49 | 1.1 | 3
